Data taken from patent US8741886B2, “Baclofen and acamprosate based therapy of neurological disorders” (Pharnext, priority 2011, dated 2014).

Tests used:
[1] = test system: mice injected i.c.v. with Aβ25-35 peptide; test: Passive avoidance test after i.c.v. Aβ25-35; type: in vivo; conditions: Acamprosate 0.2 mg/kg; Baclofen 3 mg/kg
Method: Male Swiss mice are used throughout the study. Animals are housed in plastic cages, with free access to laboratory chow and water, except during behavioural experiments, and kept in a regulated environment, under a 12 h light/dark cycle (light on at 8:00 a.m.). Experiments are carried out in a soundproof and air-regulated experimental room, to which mice have been habituated at least 30 min before each experiment.
Drug(s) is/are daily administered by gavage (per os). The β25-35 peptide and scrambled β 25-35 peptide (control) have been dissolved in sterile bidistilled water, and stored at −20° C. until use. The β-amyloid peptides are then administered intracerebroventricularly (i.c.v.). […]
On day 7 and 8, the contextual long-term memory of the animals is assessed using the […] passive avoidance procedure.
The apparatus is a two-compartment (15×20×15 cm high) box with one illuminated with white polyvinylchloride walls and the other darkened with black polyvinylchloride walls and a grid floor. […] The step-through latency, that is, the latency spent to enter the darkened compartment, and the number of vocalizations is recorded. […] After 5 s the doors is raised, the step-through latency and the escape latency, i.e. the time spent to return into the white compartment, are recorded up to 300 s.

neuronal cortical cells = test: Glutamate toxicity assay on primary cortical neurons (neurite network, neurofilament immunostaining); type: cell-based, rat; conditions: Baclofen 400 nM, Acamprosate 1.6 nM; glutamate 40 μM, 20 min
Method: The efficacy of drug combinations of the invention is assessed on primary cortical neuron cells. The protocol which is used in these assays is the same as described in section A.I.2 above.
After 12 days of neuron culture, drugs of the candidate combinations are solved in culture medium (+0.1% DMSO). Candidate combinations are then pre-incubated with neurons for 1 hour before the Glutamate injury. One hour after incubation with, Glutamate is added for 20 min, to a final concentration of 40 μM, in presence of candidate combinations, in order to avoid further drug dilutions. At the end of the incubation, medium is changed with medium with candidate combination but without glutamate. The culture is fixed 24 hours after glutamate injury. MK801 (Dizocilpinehydrogen maleate, 77086-22-7-20 μM) is used as a positive control.
After permeabilization with saponin (Sigma), cells are blocked for 2 h with PBS containing 10% goat serum, then the cells are incubated with mouse monoclonal primary antibody against Neurofilament antibody (NF, Sigma).
Nuclei of cells are labeled by a fluorescent marker (Hoechst solution, SIGMA), and neurite network quantified. Six wells per condition are used to assess neuronal survival in 3 different cultures.

[2] = test system: mice injected i.c.v. with Aβ25-35 peptide; test: Spontaneous alternation, Y-maze test, after i.c.v. Aβ25-35; type: in vivo; conditions: drugs alone: Donepezil 0.25 mg/kg/day, Acamprosate 32 μg/kg/day, Baclofen 480 μg/kg/day
Text: The Y-maze is made of grey polyvinylchloride. Each arm is 40 cm long, 13 cm high, 3 cm wide at the bottom, 10 cm wide at the top, and converging at an equal angle. […] An alternation is defined as entries into all three arms on consecutive occasions.

| Compound | effect on step-through latency, drugs alone compared with the combination (in words) [1] | effect on glutamate intoxication (in words) (neuronal cortical cells) | effect on percentage of alternation (Y-maze), low doses (in words) [2] |
| --- | --- | --- | --- |
| CC(=O)NCCCS(=O)(=O)O [Acamprosate] | lower effect | no significant effect | no significant effect |
| NCC(CC(=O)O)c1ccc(Cl)cc1 (stereo not drawn) [Baclofen] | lower effect | no significant effect | no significant effect |
